The source of these data is US8026255B2, “Substituted piperidines as somatostatin receptor subtype 5 (SSTR5) antagonists” (Hoffman-La Roche Inc., priority 2006, dated 2011).

Molecules are shown by their SMILES.

The target of the test is T1, human subtype 5 somatostatin receptor (Homo sapiens, UniProt P35346).
T1 construct: host or cells: CHO cells, stably transfected; membranes prepared from them
T1 sequence (P35346 whole entry): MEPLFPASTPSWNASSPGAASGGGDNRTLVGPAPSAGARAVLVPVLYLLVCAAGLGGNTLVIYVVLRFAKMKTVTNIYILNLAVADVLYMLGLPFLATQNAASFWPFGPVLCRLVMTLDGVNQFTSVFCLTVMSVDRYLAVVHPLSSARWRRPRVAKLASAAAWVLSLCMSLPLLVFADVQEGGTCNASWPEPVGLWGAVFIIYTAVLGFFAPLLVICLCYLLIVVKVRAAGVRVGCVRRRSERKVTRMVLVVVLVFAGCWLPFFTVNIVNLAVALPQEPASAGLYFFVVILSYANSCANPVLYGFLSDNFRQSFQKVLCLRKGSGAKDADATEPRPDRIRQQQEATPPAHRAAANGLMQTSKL
In words: SSTR5 radioligand binding assay (membranes of transfected CHO cells, 125I-labeled 11-Tyr somatostatin-14 tracer). As to conditions: CHO cell membranes, Ki calculated from IC50 by Cheng-Prussoff equation. As to the method: A CHO cell line stably transfected with a plasmid encoding the human subtype 5 somatostatin receptor (GenBank accession number D16827) was obtained from Euroscreen. Cells were cultured and used for binding and functional assays.
Membranes of these cells were prepared by sonication in the presence of protease inhibitors and subsequent fractionating centrifugation. The protein concentration in the membrane preparation was determined using a commercial kit (BCA kit, Pierce, USA). Membranes were stored at −80° C. until use. After thawing, membranes were diluted in assay buffer (50 mM Tris-HCl at pH 7.4, 5 mM MgCl2 and 0.20% BSA) and subjected to dounce homogenization.
For binding studies, 0.1 mL membrane suspension, corresponding to app. 6×10^−15 mol receptor, was incubated for 1 h at room temperature with 0.05 nM ^125I-labeled tracer (11-Tyr somatostatin-14, Perkin-Elmer) and either test compounds in varying concentrations or, for the determination of non-specific binding, 0.001 mM non-labeled somatostatin-14. The incubation was stopped by filtration through GF/B glassfiber filters and washing with ice-cold wash buffer (50 mM Tris-HCl at pH 7.4). The bound radioactivity was measured after application of a scintillation cocktail (Microscint 40) and expressed as disintegrations per minute (dpm).
The receptor concentration was determined in a prior saturation experiment where a fixed, arbitrary amount of membranes was incubated with a concentration range of radio-labeled tracer. This allows estimating the total number of specific binding sites per amount of protein (i.e., Bmax), typically between 1 and 5 pmol/mg.
The concentration of the test compound required to result in half maximal inhibition of binding of the radio-labeled tracer (IC50) was estimated from a concentration-versus-dpm graph. The binding affinity (Ki) was calculated from the IC50 by applying the Cheng-Prussoff equation for single binding sites.
Broadly, the Ki is a dissociation constant, usually derived from enzyme kinetics or from competition with a known ligand. `CCOc1cc(CN2CCC(Nc3cnc(C(N)=O)cn3)CC2)ccc1Cl` [Example 205, 5-[1-(4-Chloro-3-ethoxy-benzyl)-piperidin-4-ylamino]-pyrazine-2-carboxylic acid amide]: the Ki was 86 nM.

Take `CCOc1cc(CN2CCC(Nc3nc(C)c(-c4ccccc4)cc3C#N)CC2)ccc1OC` [Example 24, 2-[1-(3-ethoxy-4-methoxy-benzyl)-piperidin-4-ylamino]-6-methyl-5-phenyl-nicotinonitrile]: the Ki is 789 nM.

Turning to `CCOc1cc(CN2CCC(Nc3ccc4ccccc4n3)CC2)cc(OCC)c1F` [Example 103, [1-(3,5-diethoxy-4-fluoro-benzyl)-piperidin-4-yl]-quinolin-2-yl-amine], the Ki was 7 nM.
